Laboratory results published in US20090023773A1, “COMPOSITIONS AND METHODS FOR MODULATING GATED ION CHANNELS” (PainCeptor Pharma Corporation, priority 2007, published 2009).

Assays:
[1] = target: T1, hASIC2a/3 steady state (window) current (Homo sapiens, UniProt Q16515+Q9UHC3); details: supramaximal concentration; Babinski et al. (2000); cited from earlier work
T1 construct: expressed in transfected cells; host or cells: Xenopus laevis oocytes, cRNA microinjection, 1:1 mass ratio
T1 sequence (Q16515 1-512): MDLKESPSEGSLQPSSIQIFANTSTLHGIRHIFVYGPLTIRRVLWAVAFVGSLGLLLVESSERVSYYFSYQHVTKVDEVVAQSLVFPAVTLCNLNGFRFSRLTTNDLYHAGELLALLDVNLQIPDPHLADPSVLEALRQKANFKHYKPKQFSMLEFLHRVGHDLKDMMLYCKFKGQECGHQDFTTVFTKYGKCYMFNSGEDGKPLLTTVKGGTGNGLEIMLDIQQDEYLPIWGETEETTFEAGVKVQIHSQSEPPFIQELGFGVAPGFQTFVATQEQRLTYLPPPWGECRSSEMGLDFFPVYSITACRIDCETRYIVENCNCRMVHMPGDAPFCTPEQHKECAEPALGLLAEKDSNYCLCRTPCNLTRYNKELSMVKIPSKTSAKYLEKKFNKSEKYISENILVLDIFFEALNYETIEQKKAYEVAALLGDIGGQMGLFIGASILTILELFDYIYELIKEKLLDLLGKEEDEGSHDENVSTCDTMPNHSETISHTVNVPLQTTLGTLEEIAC
T1 sequence (Q9UHC3 1-531): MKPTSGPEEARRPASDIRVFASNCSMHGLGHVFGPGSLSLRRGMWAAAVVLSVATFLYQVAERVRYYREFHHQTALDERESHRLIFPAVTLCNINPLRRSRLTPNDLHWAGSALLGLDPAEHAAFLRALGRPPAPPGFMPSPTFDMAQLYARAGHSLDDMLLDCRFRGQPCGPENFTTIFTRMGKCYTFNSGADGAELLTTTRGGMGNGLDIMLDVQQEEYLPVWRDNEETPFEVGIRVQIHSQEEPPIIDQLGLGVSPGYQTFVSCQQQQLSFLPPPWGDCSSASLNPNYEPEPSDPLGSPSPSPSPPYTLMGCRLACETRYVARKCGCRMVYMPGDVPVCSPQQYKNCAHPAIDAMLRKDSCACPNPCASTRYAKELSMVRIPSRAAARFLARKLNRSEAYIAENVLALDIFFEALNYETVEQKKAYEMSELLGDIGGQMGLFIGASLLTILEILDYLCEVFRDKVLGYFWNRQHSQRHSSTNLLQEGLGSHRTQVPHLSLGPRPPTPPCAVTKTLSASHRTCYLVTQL

[2] = target: T1, hASIC2a/3 steady state (window) current; assay: ASIC2a/3 assay, automated two-electrode voltage clamp in oocytes microinjected with hASIC2a and hASIC3 (Example 2); format: cell-based; details: 50 μM, perfusion at pH 6.5; FIG. 8
Procedure: The ASIC2a/3 assay involves methods and procedures commonly in use and have been extensively described in the literature.
Briefly, a mature female frog is placed on its back after anesthesia, 20 min in 0.1% (w/v) Tricaine (Sigma), and incision is made on the lower abdomen through the skin, muscle and into the peritoneum. Lobes of ovaries are pulled out with forceps, cut and placed in a solution of Ca^2+-free Barth's with 1% (w/v) collagenase Type I (Sigma) added, for 90 minutes. The dissociated eggs are then washed with complete Barth's, supplementd with […] Gentamycin.
Plasmids containing cDNA for ASIC2a+ASIC3 are linearized and used for cRNA synthesis. The synthesis is done according to the protocol insert of the synthesis kit (e.g. Message Machine, Ambion). The final resuspension of the cRNA is made to provide a concentration of 1 μg/μL. The cDNA's for hASIC2a and hASIC3 are mixed with a 1:1 mass ratio and injected at […] per oocyte. Micro-injected oocytes start expressing hASIC2a3 specific current after 24 h.
The oocytes micro-injected with hASIC2a and hASIC3 cRNA's are placed in the recording chambers of the automated rig and then impaled with the voltage and current micro-electrodes. […] The voltage and current for each oocyte is recorded in one pass during both applications for later analysis. […]

[3] = system: chemically-induced spontaneous pain evoked by intraplantar injection of formalin; assay: Formalin test, model of acute tonic pain (Example 7); format: in vivo; details: rat; SC, 10 and 300 μmol/kg, 60 min prior to formalin; FIG. 9A
Procedure: Male Sprague-Dawley rats are housed together in groups of three animals under standard conditions with unrestricted access to food and water. All experiments are conducted according to the ethical guidelines for investigations of experimental pain in conscious animals (Zimmerman, 1983).
Assessment of formalin-induced flinching behavior in normal, uninjured rats (body weight 200-300 g) is made after formalin (2.5% in saline, 50-100 μl, s.c.) is injected into the plantar surface of the hindpaw using a 27 G needle. Rats are pretreated with test compounds either administered intravenously (IV), by subcutaneous injection (SC) or by orally (PO).
Nociceptive behavior is determined manually every 5 min by measuring the amount of time spent in each of four behavioral categories: 0, treatment of the injected hindpaw is indistinguishable from that of the contralateral paw; 1, the injected paw has little or no weight placed on it; 2, the injected paw is elevated and is not in contact with any surface; 3, the injected paw is licked, bitten, or shaken. A weighted nociceptive score, ranging from 0 to 3 is calculated by multiplying the time spent in each category by the category weight, summing these products, and dividing by the total time for each 5 min block of time. (Coderre et al., Pain 1993; 54: 43). On the basis of the resulting response patterns, […] of nociceptive behavior are identified and scored: first phase (P1; 0-5 min), interphase (Int; 6-15 min), second phase (P2; […]), phase 2A (P2A; 16-40 min) and phase 2B (P2B; 41-60 min).
Statistical analysis is performed using the Prism™ 4.01 software package (GraphPad, San Diego, Calif., USA). The difference in response levels between treatment groups and control vehicle group is analyzed using an ANOVA followed by Bonferroni's method for post-hoc pair-wise comparisons. A p value <0.05 is considered to be significant.

SMILES	block of the ASIC2A/3 steady state current [1]	inhibition of the ASIC 2a/3 current [2]	pain intensity as evaluated by the licking behavior [3]
[Gd+3] [gadolinium (Gd^3+)]	completely block		
O=C(O)c1ccc(Nc2nc(-c3ccc(Cl)cc3)nc3ccccc23)cc1 [Compound 111]		specific inhibition	dose-dependent reduction
